# Assay results: PubChem BioAssay AID2060487 (Molecular Pharmacology Branch, DTP, NCI, 2025)
# System: 997537-175-T-J1-PDC complex spheroid viability
# Experiment: Anticancer human tumor 997537-175-T-J1-PDC patient-derived colon adenocarcinoma cell line growth inhibition [GQUAD]
# Settings: for IC50: curve of first compound; for viability, T/C: stronger effect = lower value
# From the text: DNA G-quadruplex Stabilizer Agents in Combinations in Complex Spheroids
# A high-throughput screen of multi-cell type tumor spheroids was designed to identify active combinations of DNA G-quadruplex stabilizer agents and targeted small molecules. Complex spheroids include a stromal component modeled by human endothelial cells (HUVEC) and fibroblasts modeled by human mesenchymal stem cells (MSCs). The concentration ranges selected for each drug and investigational agent were based upon clinically achievable concentrations if the clinical Cmax of the agent was known.
# Compounds. The drugs and investigational agents: pidnarulex (CX-5461; NSC782164), APTO-253 (NSC789042), BRACO-19 (NSC847499), peposertib (NSC802822), ceralasertib (NSC780249), elimusertib (NSC800525), camonsertib (NSC841442), AZD-1390 (NSC803789), olaparib (NSC753686), talazoparib (NSC767125), ART-558 (NSC835418), sotorasib (NSC818433), MRTX-1133 (NSC836407), SN-38 (NSC673596), topotecan (NSC609699), etoposide (NSC141540), doxorubicin (NSC123127), gemcitabine (NSC613327), 5-fluorouracil (NSC19893), paclitaxel (NSC125973), vemurafenib (NSC761431), panobinostat (NSC761190), R-306465 (JNJ-16241199; NSC773264), adavosertib (NSC754352), TP-3654 (NSC805149), carboplatin (NSC241240), KSQ-4279 (NSC840948), and staurosporine (NSC755774) were obtained from the National Cancer Institute (NCI) Developmental Therapeutics Program Chemical Repository (34). The FDA-approved anticancer drug set is available from the NCI Developmental Therapeutics Program. […] The stock solutions were prepared in dimethyl sulfoxide (DMSO, Sigma-Aldrich, St. Louis, MO, cat. D2650) at 800-fold the tested concentration and stored at -70 degrees C prior to their use. All drugs and investigational agents were tested over a range starting from a high concentration at or near the clinical Cmax and decreasing in half-log increments. If the clinical Cmax for an agent had not been determined, the highest concentration tested was 10 microM.
# 2.3 Cell Culture. All cells were maintained in an incubator at 37 degrees C and 5% CO2 with 95% humidity. The PDC lines were cultured according to standard operating procedures established by the NCI PDMR. All PDCs were thawed and cultured in Matrigel-coated flasks prepared with a working solution of 1X Ham's F-12 nutrient mix, without supplementation (Invitrogen, cat. 11765054), 100 U/mL penicillin-streptomycin (Invitrogen, cat. 15140122), and 2.5% Matrigel (Corning Inc., cat. 354248) for the first three passages. The 857933-349-R-J2-PDC line was cultured in 6C/Colon 1B media, which includes advanced DMEM/F-12 (Thermo Fisher Scientific, cat. 12634028), 10 mM HEPES (Thermo Fisher Scientific, cat. 15630080), 1X GlutaMAX supplement (Thermo Fisher Scientific, cat. 35050061), 0.1 mg/mL primocin (InvivoGen, cat. ant-pm-2), 10% defined fetal bovine serum, heat inactivated (HyClone Laboratories Inc., cat. SH30070.03HI), 50% L-WRN conditioned media (ATCC, cat. CRL-3276), 1.25 mM N-Acetyl-L-cysteine (Sigma-Aldrich, cat. A9165), 10 mM nicotinamide (Sigma-Aldrich, cat. N0636), 1X B-27 supplement (Thermo Fisher Scientific, cat. 17504044), 1X N-2 supplement (Thermo Fisher Scientific, cat. 17502048), 10 microM Y-27632 dihydrochloride (Tocris Bioscience, cat. 1254), and 50 ng/mL human EGF recombinant protein (Thermo Fisher Scientific, cat. PHG0311). The 485176-168-R4-J1-PDC line was cultured in Panc media, which includes all 6C/Colon 1B media components plus 100 ng/mL human FGF-10 (Thermo Fisher Scientific, cat. 100-26), 500 nM SB-431542 (Selleckchem, cat. S1067), and gastrin (Tocris, cat. 3006).
# […]
# [1] = second compound 0.0316 µM, first compound 0.0316 µM
# [2] = second compound 0.0316 µM, first compound 0.316 µM
# [3] = second compound 0.1 µM, first compound 0.0316 µM
# [4] = second compound 0.1 µM, first compound 0.316 µM
# [5] = second compound 0.316 µM, first compound 0.0316 µM
# [6] = second compound 0.316 µM, first compound 0.316 µM
# [7] = second compound 1 µM, first compound 0.0316 µM
# [8] = second compound 1 µM, first compound 0.316 µM
# [9] = second compound 3.16 µM, first compound 0.0316 µM
# [10] = second compound 3.16 µM, first compound 0.316 µM
# [11] = second compound 10 µM, first compound 0.0316 µM
# [12] = second compound 10 µM, first compound 0.316 µM
# 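Further: spheroids exposed to the agents for 7 days.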
# 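Wherever viability, T/C is given: 100% = DMSO vehicle control viability.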
smiles,measurement,setting,value
CCc1c2c(nc3ccc(O)cc13)-c1cc3c(c(=O)n1C2)COC(=O)[C@]3(O)CC + CN(C)c1ccc(Nc2c3ccc(NC(=O)CCN4CCCC4)cc3nc3cc(NC(=O)CCN4CCCC4)ccc23)cc1,IC50,second compound 0.0316 µM,13.8 nM
same,IC50,second compound 0.1 µM,10.3 nM
same,IC50,second compound 0.316 µM,10.2 nM
same,IC50,second compound 1 µM,15.7 nM
same,IC50,second compound 3.16 µM,15.8 nM
same,IC50,second compound 10 µM,21.3 nM
same,"viability, T/C","second compound 0.0316 µM, first compound 0.000999 µM",97.8%
same,"viability, T/C","second compound 0.0316 µM, first compound 0.00316 µM",84.2%
same,"viability, T/C","second compound 0.0316 µM, first compound 0.00999 µM",58.6%
same,"viability, T/C",[1],29.5%
same,"viability, T/C","second compound 0.0316 µM, first compound 0.0999 µM",6.84%
same,"viability, T/C",[2],4.15%
same,"viability, T/C","second compound 0.1 µM, first compound 0.000999 µM",104%
same,"viability, T/C","second compound 0.1 µM, first compound 0.00316 µM",83.4%
same,"viability, T/C","second compound 0.1 µM, first compound 0.00999 µM",50.6%
same,"viability, T/C",[3],22.9%
same,"viability, T/C","second compound 0.1 µM, first compound 0.0999 µM",9.03%
same,"viability, T/C",[4],4.26%
same,"viability, T/C","second compound 0.316 µM, first compound 0.000999 µM",97%
same,"viability, T/C","second compound 0.316 µM, first compound 0.00316 µM",78.4%
same,"viability, T/C","second compound 0.316 µM, first compound 0.00999 µM",51.6%
same,"viability, T/C",[5],22.6%
same,"viability, T/C","second compound 0.316 µM, first compound 0.0999 µM",8.39%
same,"viability, T/C",[6],4.2%
same,"viability, T/C","second compound 1 µM, first compound 0.000999 µM",77.5%
same,"viability, T/C","second compound 1 µM, first compound 0.00316 µM",58.7%
same,"viability, T/C","second compound 1 µM, first compound 0.00999 µM",67.6%
same,"viability, T/C",[7],23.9%
same,"viability, T/C","second compound 1 µM, first compound 0.0999 µM",11.6%
same,"viability, T/C",[8],3.86%
same,"viability, T/C","second compound 3.16 µM, first compound 0.000999 µM",75%
same,"viability, T/C","second compound 3.16 µM, first compound 0.00316 µM",85%
same,"viability, T/C","second compound 3.16 µM, first compound 0.00999 µM",57.8%
same,"viability, T/C",[9],33.8%
same,"viability, T/C","second compound 3.16 µM, first compound 0.0999 µM",9.84%
same,"viability, T/C",[10],4.51%
same,"viability, T/C","second compound 10 µM, first compound 0.000999 µM",83.9%
same,"viability, T/C","second compound 10 µM, first compound 0.00316 µM",84%
same,"viability, T/C","second compound 10 µM, first compound 0.00999 µM",80.4%
same,"viability, T/C",[11],34.2%
same,"viability, T/C","second compound 10 µM, first compound 0.0999 µM",11.7%
same,"viability, T/C",[12],4.48%
Cc1cccc(N(C)C(=O)C2C(O)CCN2c2nc(C)cc(C(F)(F)F)c2C#N)c1 (centres undefined) + CN(C)c1ccc(Nc2c3ccc(NC(=O)CCN4CCCC4)cc3nc3cc(NC(=O)CCN4CCCC4)ccc23)cc1,IC50,second compound 0.0316 µM,> 10000 nM
same,IC50,second compound 0.1 µM,> 10000 nM
same,IC50,second compound 0.316 µM,> 10000 nM
same,IC50,second compound 1 µM,> 10000 nM
same,IC50,second compound 3.16 µM,> 10000 nM
same,IC50,second compound 10 µM,> 10000 nM
same,"viability, T/C",[1],97.8%
same,"viability, T/C","second compound 0.0316 µM, first compound 0.1 µM",101%
same,"viability, T/C",[2],101%
same,"viability, T/C","second compound 0.0316 µM, first compound 1 µM",80.2%
same,"viability, T/C","second compound 0.0316 µM, first compound 3.16 µM",85.4%
same,"viability, T/C","second compound 0.0316 µM, first compound 10 µM",105%
same,"viability, T/C",[3],91.5%
same,"viability, T/C","second compound 0.1 µM, first compound 0.1 µM",85.9%
same,"viability, T/C",[4],87.7%
same,"viability, T/C","second compound 0.1 µM, first compound 1 µM",70.3%
same,"viability, T/C","second compound 0.1 µM, first compound 3.16 µM",103%
same,"viability, T/C","second compound 0.1 µM, first compound 10 µM",89.7%
same,"viability, T/C",[5],83.8%
same,"viability, T/C","second compound 0.316 µM, first compound 0.1 µM",85.7%
same,"viability, T/C",[6],81.4%
same,"viability, T/C","second compound 0.316 µM, first compound 1 µM",77.7%
same,"viability, T/C","second compound 0.316 µM, first compound 3.16 µM",89.2%
same,"viability, T/C","second compound 0.316 µM, first compound 10 µM",104%
same,"viability, T/C",[7],84.9%
same,"viability, T/C","second compound 1 µM, first compound 0.1 µM",61.3%
same,"viability, T/C",[8],83.2%
same,"viability, T/C","second compound 1 µM, first compound 1 µM",81.2%
same,"viability, T/C","second compound 1 µM, first compound 3.16 µM",104%
same,"viability, T/C","second compound 1 µM, first compound 10 µM",85.3%
same,"viability, T/C",[9],61.4%
same,"viability, T/C","second compound 3.16 µM, first compound 0.1 µM",91.3%
same,"viability, T/C",[10],77%
same,"viability, T/C","second compound 3.16 µM, first compound 1 µM",93.8%
same,"viability, T/C","second compound 3.16 µM, first compound 3.16 µM",103%
same,"viability, T/C","second compound 3.16 µM, first compound 10 µM",103%
same,"viability, T/C",[11],72.5%
same,"viability, T/C","second compound 10 µM, first compound 0.1 µM",83.9%
same,"viability, T/C",[12],106%
same,"viability, T/C","second compound 10 µM, first compound 1 µM",88.9%
same,"viability, T/C","second compound 10 µM, first compound 3.16 µM",106%
same,"viability, T/C","second compound 10 µM, first compound 10 µM",103%
